Source: US4800191A, “LHRH antagonists” (priority 1987, dated 1989)
Where “and” joins values, the source holds several entries; their conditions need not be identical. Equal values may be shown once. *1 amine or outer side, *2 acyl side, *3 side chain or, on linkers, in order; H or OH if unused. Where a SMILES comes first, the peptide text is derived from it. Side-chain parts run from the residue outwards. [ ]: non-standard residue; d: D form. dPhe(4-Cl) = N[C@H](Cc1ccc(Cl)cc1)C(=O)O; d2Nal = N[C@H](Cc1ccc2ccccc2c1)C(=O)O; d(hCit) = NC(=O)NCCCC[C@@H](N)C(=O)O; dCit = NC(=O)NCCC[C@@H](N)C(=O)O; dOrn = NCCC[C@@H](N)C(=O)O; CO = O=C([*:1])[*:2]

Test system: rats
Experiment: edematogenic test of Schmidt, et al.
Format: in vivo, rat
Conditions: 1.5 mg/kg s.c. once a day on two consecutive days; for 1st Day FR (full responders: facial edema with edematous extremities), rats / 1st Day PR (partial responders: edema of the nasal and paranasal area), rats / 1st Day NR (no apparent reaction), rats: day 1; for 1st Day NR (no apparent reaction), rats: observed five hours each day; for 2nd Day FR (full responders: facial edema with edematous extremities), rats / 2nd Day NR (no apparent reaction), rats / 2nd Day PR (partial responders: edema of the nasal and paranasal area), rats: day 2
Protocol: In the edematogenic test of Schmidt, et al. (Contraception, 29, 283-289, 1984), however, a marked difference can be found between the control peptides and the peptides of the present invention. The control peptides produce edema of the face and extremities when administered subcutaneously in rats at doses of 0.75 or 1.25 mg/kg. No such reaction can be observed with the peptides of the present invention when given at a subcutaneous dose of 1.5 mg/kg.
In the tests as run the rats were assigned to three groups of five rats per group per compound tested. Comparison with made with a known prior art compound designated ORG 30276 namely (N-Ac-D-p-Cl-Phe^1,2, D-Trp^3, D-Arg^6, D-Ala^10)-LHRH. The groups were injected subcuntaneously once a day on two consecutive days with the LHRH antagonists at a dose level of 1.5 mg/kg. One control group was injected with diluent only. The rats were observed during five hours each day. Reactions of the rats were classified as follows: NR no apparent reaction, PR partial responders: edema of the nasal and paranasal area, FR full responders: facial edema with edematous extremities.

Row | Compound | 1st Day FR (full responders: facial edema with edematous extremities), rats | 1st Day PR (partial responders: edema of the nasal and paranasal area), rats | 1st Day NR (no apparent reaction), rats | 2nd Day FR (full responders: facial edema with edematous extremities), rats | 2nd Day NR (no apparent reaction), rats | 2nd Day PR (partial responders: edema of the nasal and paranasal area), rats
1 | CC(=O)N[C@H](Cc1ccc2ccccc2c1)C(=O)N[C@H](Cc1ccc(Cl)cc1)C(=O)N[C@H](Cc1c[nH]c2ccccc12)C(=O)N[C@@H](CO)C(=O)N[C@@H](Cc1ccc(O)cc1)C(=O)N[C@H](CCCNC(N)=O)C(=O)N[C@@H](CC(C)C)C(=O)N[C@@H](CCCNC(=N)N)C(=O)N1CCC[C@H]1C(=O)N[C@H](C)C(N)=O [EX III, Ac-D-Nal(2)-D-Phe(4-Cl)-D-Trp-Ser-Tyr-D-Cit-Leu-Arg-Pro-D-Ala-NH^2] (Ac-[d2Nal][dPhe(4-Cl)][dW]SY[dCit]LRP[dA]-NH2) | 0 | 0 | 8 |  |  | 
2 | CCNC(=O)NCCC[C@@H](NC(=O)[C@H](Cc1ccc(O)cc1)NC(=O)[C@H](CO)NC(=O)[C@@H](Cc1c[nH]c2ccccc12)NC(=O)[C@@H](Cc1ccc(Cl)cc1)NC(=O)[C@@H](Cc1ccc2ccccc2c1)NC(C)=O)C(=O)N[C@@H](CC(C)C)C(=O)N[C@@H](CCCNC(=N)N)C(=O)N1CCC[C@H]1C(=O)N[C@H](C)C(N)=O [EX IV, Ac-D-Nal(2)-D-Phe(4-Cl)-D-Trp-Ser-Tyr-D-Cit(Et)-Leu-Arg-Pro-D-Ala-NH2] (Ac-[d2Nal][dPhe(4-Cl)][dW]SY[dOrn]([CO-NHEt])LRP[dA]-NH2) | 0 | 0 | 9 | 0 | 9 | 0
3 | CC(=O)N[C@H](Cc1ccc(Cl)cc1)C(=O)N[C@H](Cc1ccc(Cl)cc1)C(=O)N[C@H](Cc1c[nH]c2ccccc12)C(=O)N[C@@H](CO)C(=O)N[C@@H](Cc1ccc(O)cc1)C(=O)N[C@H](CCCCNC(N)=O)C(=O)N[C@@H](CC(C)C)C(=O)N[C@@H](CCCNC(=N)N)C(=O)N1CCC[C@H]1C(=O)N[C@H](C)C(N)=O [EX V, Ac-D-Phe(4-Cl)-D-Phe(4-Cl)-D-Trp-Ser-Tyr-D-Hci-Leu-Arg-Pro-D-Ala-NH2] (Ac-[dPhe(4-Cl)][dPhe(4-Cl)][dW]SY[d(hCit)]LRP[dA]-NH2) | 0 | 0 | 9 | 0 | 8 | 1
4 | CC(=O)N[C@H](Cc1ccc(Cl)cc1)C(=O)N[C@H](Cc1ccc(Cl)cc1)C(=O)N[C@H](Cc1c[nH]c2ccccc12)C(=O)N[C@@H](CO)C(=O)N[C@@H](Cc1ccc(O)cc1)C(=O)N[C@H](CCCNC(=N)N)C(=O)N[C@@H](CC(C)C)C(=O)N[C@@H](CCCNC(=N)N)C(=O)N1CCC[C@H]1C(=O)N[C@H](C)C(N)=O [ORG 30276, (N-Ac-D-p-Cl-Phe^1,2, D-Trp^3, D-Arg^6, D-Ala^10)-LHRH, reference compound] (Ac-[dPhe(4-Cl)][dPhe(4-Cl)][dW]SY[dR]LRP[dA]-NH2) | 0 | 5 and 3 |  | 6 and 3 |  | 2 and 1
5 | Ac-[d2Nal][dPhe(4-Cl)][dW]SY[d(hCit)]RP[dA]-NH2 [EX I] | 0 | 0 | 8 | 0 | 8 | 0
